# Measured values taken from PubChem BioAssay (NCI).
#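 Cultured in 96-well plates, cells were exposed to test compound for 48 hours across five concentrations. Here, GI50 denotes the concentration required for 50% inhibition of growth. Definition used: TGI = concentration required for complete inhibition of growth.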
# Assays:
# Assay in all cases: growth of human tumour cells (NCI), 48 h
# [1] = system: A498 renal
# [2] = system: MALME-3M melanoma
# [3] = system: SF-295 CNS
# [4] = system: LOX IMVI melanoma
# [5] = system: A549 NSCLC
# [6] = system: NCI-H522 lung
# [7] = system: SK-MEL-5 melanoma
# [8] = system: RPMI-8226 leukemia
# [9] = system: BT-549 breast
# [10] = system: T-47D breast
# [11] = system: OVCAR-4 ovarian
# [12] = system: SK-MEL-2 melanoma
# [13] = system: COLO 205 colon
# [14] = system: HOP-92 NSCLC
# [15] = system: MOLT-4 leukemia
# [16] = system: SR leukemia
# [17] = system: MDA-MB-435
# [18] = system: IGROV1 ovarian
# [19] = system: MDA-MB-231 breast
# [20] = system: KM12 colon
# [21] = system: NCI/ADR-RES ovarian
# [22] = system: HL-60(TB) leukemia
# [23] = system: UACC-62 melanoma
# [24] = system: M14 melanoma
# [25] = system: 786-0 renal
# [26] = system: OVCAR-3 ovarian
# [27] = system: NCI-H460 lung
# [28] = system: HCT-15 colon
# [29] = system: HCC-2998 colon
# [30] = system: OVCAR-5 ovarian
# [31] = system: ACHN renal
# [32] = system: UO-31 renal
# [33] = system: SK-OV-3 ovarian
# [34] = system: SNB-19 CNS
# [35] = system: PC-3 prostate
# [36] = system: HT29 colon
# [37] = system: CCRF-CEM leukemia
# [38] = system: SF-539 CNS
# [39] = system: SNB-75 CNS
# [40] = system: U251 CNS
# [41] = system: DU-145 prostate
# [42] = system: RXF 393 renal
# [43] = system: NCI-H226 lung
# [44] = system: UACC-257 melanoma
# [45] = system: TK-10 renal
# [46] = system: NCI-H23 lung
# [47] = system: OVCAR-8 ovarian
# [48] = system: SW-620 colon
# [49] = system: HCT-116 colon
# [50] = system: HOP-62 NSCLC
# [51] = system: CAKI-1 renal
# [52] = system: SF-268 CNS
# [53] = system: HS 578T breast
# [54] = system: SK-MEL-28 melanoma
# [55] = system: SN12C renal
# [56] = system: MCF7 breast
# [57] = system: K-562 leukemia
smiles,measurement,setting,value
Cn1cc(C2=C(Oc3ccccc3)C(=O)NC2=O)c2ccccc21,GI50,[1],> 25 µM
same,TGI,[1],> 25 µM
same,GI50,[2],> 25 µM
same,TGI,[2],> 25 µM
same,GI50,[3],> 25 µM
same,TGI,[3],> 25 µM
same,GI50,[4],> 25 µM
same,TGI,[4],> 25 µM
same,GI50,[5],> 25 µM
same,TGI,[5],> 25 µM
same,GI50,[6],> 25 µM
same,TGI,[6],> 25 µM
same,GI50,[7],> 25 µM
same,TGI,[7],> 25 µM
same,GI50,[8],> 25 µM
same,TGI,[8],> 25 µM
same,GI50,[9],> 25 µM
same,TGI,[9],> 25 µM
same,GI50,[10],> 25 µM
same,TGI,[10],> 25 µM
same,GI50,[11],> 25 µM
same,TGI,[11],> 25 µM
same,GI50,[12],> 25 µM
same,TGI,[12],> 25 µM
same,GI50,[13],> 25 µM
same,TGI,[13],> 25 µM
same,GI50,[14],6.32 µM
same,TGI,[14],> 25 µM
same,GI50,[15],> 25 µM
same,TGI,[15],> 25 µM
same,GI50,[16],> 25 µM
same,TGI,[16],> 25 µM
same,GI50,[17],> 25 µM
same,TGI,[17],> 25 µM
same,GI50,[18],> 25 µM
same,TGI,[18],> 25 µM
same,GI50,[19],> 19.3 µM
same,TGI,[19],> 25 µM
same,GI50,[20],> 25 µM
same,TGI,[20],> 25 µM
same,GI50,[21],> 25 µM
same,TGI,[21],> 25 µM
same,GI50,[22],> 25 µM
same,TGI,[22],> 25 µM
same,GI50,[23],> 25 µM
same,TGI,[23],> 25 µM
same,GI50,[24],> 25 µM
same,TGI,[24],> 25 µM
same,GI50,[25],> 25 µM
same,TGI,[25],> 25 µM
same,GI50,[26],> 25 µM
same,TGI,[26],> 25 µM
same,GI50,[27],> 25 µM
same,TGI,[27],> 25 µM
same,GI50,[28],> 25 µM
same,TGI,[28],> 25 µM
same,GI50,[29],> 25 µM
same,TGI,[29],> 25 µM
same,GI50,[30],> 25 µM
same,TGI,[30],> 25 µM
same,GI50,[31],> 25 µM
same,TGI,[31],> 25 µM
same,GI50,[32],> 25 µM
same,TGI,[32],> 25 µM
same,GI50,[33],> 25 µM
same,TGI,[33],> 25 µM
same,GI50,[34],> 25 µM
same,TGI,[34],> 25 µM
same,GI50,[35],> 25 µM
same,TGI,[35],> 25 µM
same,GI50,[36],> 25 µM
same,TGI,[36],> 25 µM
same,GI50,[37],> 25 µM
same,TGI,[37],> 25 µM
same,GI50,[38],> 25 µM
same,TGI,[38],> 25 µM
same,GI50,[39],> 12.4 µM
same,TGI,[39],> 25 µM
same,GI50,[40],> 25 µM
same,TGI,[40],> 25 µM
same,GI50,[41],> 25 µM
same,TGI,[41],> 25 µM
same,GI50,[42],> 25 µM
same,TGI,[42],> 25 µM
same,GI50,[43],> 25 µM
same,TGI,[43],> 25 µM
same,GI50,[44],> 25 µM
same,TGI,[44],> 25 µM
same,GI50,[45],> 25 µM
same,TGI,[45],> 25 µM
same,GI50,[46],> 25 µM
same,TGI,[46],> 25 µM
same,GI50,[47],> 25 µM
same,TGI,[47],> 25 µM
same,GI50,[48],> 25 µM
same,TGI,[48],> 25 µM
same,GI50,[49],> 25 µM
same,TGI,[49],> 25 µM
same,GI50,[50],> 17.8 µM
same,TGI,[50],> 25 µM
same,GI50,[51],> 25 µM
same,TGI,[51],> 25 µM
same,GI50,[52],> 25 µM
same,TGI,[52],> 25 µM
same,GI50,[53],> 25 µM
same,TGI,[53],> 25 µM
same,GI50,[54],> 25 µM
same,TGI,[54],> 25 µM
same,GI50,[55],> 25 µM
same,TGI,[55],> 25 µM
same,GI50,[56],> 25 µM
same,TGI,[56],> 25 µM
same,GI50,[57],> 25 µM
same,TGI,[57],> 25 µM
C/C(=C1\SC(=NCc2cccs2)NC1=O)c1ccc2ncccc2c1,GI50,[1],13.5 µM
same,TGI,[1],> 25 µM
same,GI50,[2],> 25 µM
same,TGI,[2],> 25 µM
same,GI50,[3],11.4 µM
same,TGI,[3],> 25 µM
same,GI50,[4],13.8 µM
same,TGI,[4],> 25 µM
same,GI50,[5],12.2 µM
same,TGI,[5],> 25 µM
same,GI50,[6],8.56 µM
same,TGI,[6],> 25 µM
same,GI50,[7],8.21 µM
same,TGI,[7],> 25 µM
same,GI50,[8],13 µM
same,TGI,[8],> 25 µM
same,GI50,[9],> 25 µM
same,TGI,[9],> 25 µM
same,GI50,[10],15.1 µM
same,TGI,[10],> 25 µM
same,GI50,[11],18.1 µM
same,TGI,[11],> 25 µM
same,GI50,[12],> 25 µM
same,TGI,[12],> 25 µM
same,GI50,[13],12.4 µM
same,TGI,[13],> 25 µM
same,GI50,[14],7.08 µM
same,TGI,[14],> 25 µM
same,GI50,[15],9.56 µM
same,TGI,[15],> 25 µM
same,GI50,[16],7.06 µM
same,TGI,[16],> 21.7 µM
same,GI50,[17],7.55 µM
same,TGI,[17],> 25 µM
same,GI50,[18],> 25 µM
same,TGI,[18],> 25 µM
same,GI50,[19],7.24 µM
same,TGI,[19],> 25 µM
same,GI50,[20],13.1 µM
same,TGI,[20],> 25 µM
same,GI50,[21],20.1 µM
same,TGI,[21],> 25 µM
same,GI50,[22],9.36 µM
same,TGI,[22],> 25 µM
same,GI50,[23],> 19.3 µM
same,TGI,[23],> 25 µM
same,GI50,[24],13.9 µM
same,TGI,[24],> 25 µM
same,GI50,[25],> 23.1 µM
same,TGI,[25],> 25 µM
same,GI50,[26],18.1 µM
same,TGI,[26],> 25 µM
same,GI50,[27],9.27 µM
same,TGI,[27],> 25 µM
same,GI50,[28],10.9 µM
same,TGI,[28],> 25 µM
same,GI50,[29],> 25 µM
same,TGI,[29],> 25 µM
same,GI50,[30],> 25 µM
same,TGI,[30],> 25 µM
same,GI50,[31],18.7 µM
same,TGI,[31],> 25 µM
same,GI50,[32],10.1 µM
same,TGI,[32],> 25 µM
same,GI50,[33],> 25 µM
same,TGI,[33],> 25 µM
same,GI50,[34],13.6 µM
same,TGI,[34],> 25 µM
same,GI50,[35],12.7 µM
same,TGI,[35],> 25 µM
same,GI50,[36],10.9 µM
same,TGI,[36],> 25 µM
same,GI50,[37],10.2 µM
same,TGI,[37],> 25 µM
same,GI50,[38],9.5 µM
same,TGI,[38],> 25 µM
same,GI50,[39],3.93 µM
same,TGI,[39],> 23.3 µM
same,GI50,[40],11.7 µM
same,TGI,[40],> 25 µM
same,GI50,[41],> 25 µM
same,TGI,[41],> 25 µM
same,GI50,[42],> 25 µM
same,TGI,[42],> 25 µM
same,GI50,[43],21.5 µM
same,TGI,[43],> 25 µM
same,GI50,[44],> 25 µM
same,TGI,[44],> 25 µM
same,GI50,[45],> 25 µM
same,TGI,[45],> 25 µM
same,GI50,[46],22.2 µM
same,TGI,[46],> 25 µM
same,GI50,[47],14.7 µM
same,TGI,[47],> 25 µM
same,GI50,[48],10.1 µM
same,TGI,[48],> 25 µM
same,GI50,[49],11 µM
same,TGI,[49],> 25 µM
same,GI50,[50],21.8 µM
same,TGI,[50],> 25 µM
same,GI50,[51],11.1 µM
same,TGI,[51],> 25 µM
same,GI50,[52],18 µM
same,TGI,[52],> 25 µM
same,GI50,[53],9.15 µM
same,TGI,[53],> 25 µM
same,GI50,[54],> 25 µM
same,TGI,[54],> 25 µM
same,GI50,[55],12.6 µM
same,TGI,[55],> 25 µM
same,GI50,[56],11.7 µM
same,TGI,[56],> 25 µM
same,GI50,[57],8.71 µM
same,TGI,[57],> 25 µM
